Consider 5 molecules from patent US20250281649A1, “PROBE DIRECTED TO ENZYME ALDH1A3 AND USE THEREOF IN THE DIAGNOSIS OF GLIOBLASTOMA” (Universita' Degli Studi Del Piemonte Orientale "A. Avogadro", priority 2021, published 2025).

In data set [1] the target is T1, ALDH1A1 (Homo sapiens, UniProt P00352).
T1 construct: His-tag; made in house; host or cells: bacterial cells
T1 sequence (P00352 1-501): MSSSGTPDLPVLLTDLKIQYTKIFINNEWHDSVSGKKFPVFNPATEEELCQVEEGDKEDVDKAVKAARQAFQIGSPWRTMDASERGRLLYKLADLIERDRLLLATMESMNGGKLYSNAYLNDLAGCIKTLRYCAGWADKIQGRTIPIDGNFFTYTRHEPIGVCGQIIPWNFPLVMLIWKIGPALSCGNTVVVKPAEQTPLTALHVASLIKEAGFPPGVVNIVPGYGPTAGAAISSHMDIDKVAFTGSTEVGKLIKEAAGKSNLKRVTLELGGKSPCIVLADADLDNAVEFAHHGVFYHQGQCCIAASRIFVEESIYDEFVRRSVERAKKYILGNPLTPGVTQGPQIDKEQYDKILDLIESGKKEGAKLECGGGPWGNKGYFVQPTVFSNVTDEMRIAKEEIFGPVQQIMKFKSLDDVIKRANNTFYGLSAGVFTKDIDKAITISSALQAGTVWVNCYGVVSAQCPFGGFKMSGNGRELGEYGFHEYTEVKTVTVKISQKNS
The data set is described as follows: KD evaluation by probe fluorescence (Tecan SPARK). The following applies: probe fixed at 10 μM, isoenzyme 100 μM to 1 μM. Format: binding. As for the experimental part: (§1) A common protocol to express and purify all three members of the ALDHIA subfamily has been optimized. Briefly, induced cells, collected by centrifugation, were re-suspended in an appropriate volume of lysis buffer (50 mM Na2HPO4, 300 mM NaCl, 1 mM β-mercaptoethanol, 20 mM imidazole, pH 7.5) added of benzonase nuclease (250 U/μL) and Protease inhibitor cocktail from SIGMA. After ultracentrifugation, the clarified sample was purified by a His-tag affinity chromatography followed by size-exclusion chromatography, using an AKTA FPLC system, at 4° C. To evaluate the purity and homogeneity of the protein, after each purification step, eluted d fractions were analyzed by SDS-PAGE and the protein quantification was always determined by Bradford protein assay.
(§2) KD evaluation: on a Tecan—SPARK, probe 14 and 13 were tested at a fixed concentration of 10 μM. All the isoenzymes were tested in wide range of concentrations (from 100 μM to 1 μM). The analysis was settled with a BW of 20, monitoring the Em wavelength in range comprised between 520 and 535 nm for probe 14 and 520 and 580 nm for probe 13. The Ex was fixed at 420 nm for probe 14 and 440 nm for probe 13. The test was performed in quadruplicate with all the three isoenzymes. The recipe of the buffer reaction was the same as described before.

The target in data set [2] is T2, ALDH1A3 (Homo sapiens, UniProt P47895).
T2 construct: His-tag; made in house; host or cells: bacterial cells
T2 sequence (P47895 1-512): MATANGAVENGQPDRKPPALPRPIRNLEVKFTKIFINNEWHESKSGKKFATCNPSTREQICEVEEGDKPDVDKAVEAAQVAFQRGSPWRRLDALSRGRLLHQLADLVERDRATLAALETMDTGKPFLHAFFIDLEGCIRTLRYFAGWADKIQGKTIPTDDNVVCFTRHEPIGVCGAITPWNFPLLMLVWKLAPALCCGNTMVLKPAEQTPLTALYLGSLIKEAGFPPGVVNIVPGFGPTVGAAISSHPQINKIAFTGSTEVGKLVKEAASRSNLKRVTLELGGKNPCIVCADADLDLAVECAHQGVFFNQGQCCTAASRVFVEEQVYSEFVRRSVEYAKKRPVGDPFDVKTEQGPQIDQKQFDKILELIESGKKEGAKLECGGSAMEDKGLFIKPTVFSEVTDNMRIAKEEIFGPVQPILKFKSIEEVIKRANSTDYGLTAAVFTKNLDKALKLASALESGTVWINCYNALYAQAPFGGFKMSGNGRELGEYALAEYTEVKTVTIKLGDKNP
The data set is described as follows: KD evaluation by probe fluorescence (Tecan SPARK). The class given is binding. As for the experimental part:
as §1, §2

Data set [3] deals with T3, ALDH1A2 (Homo sapiens, UniProt O94788).
T3 construct: His-tag; made in house; host or cells: bacterial cells
T3 sequence (O94788 1-518): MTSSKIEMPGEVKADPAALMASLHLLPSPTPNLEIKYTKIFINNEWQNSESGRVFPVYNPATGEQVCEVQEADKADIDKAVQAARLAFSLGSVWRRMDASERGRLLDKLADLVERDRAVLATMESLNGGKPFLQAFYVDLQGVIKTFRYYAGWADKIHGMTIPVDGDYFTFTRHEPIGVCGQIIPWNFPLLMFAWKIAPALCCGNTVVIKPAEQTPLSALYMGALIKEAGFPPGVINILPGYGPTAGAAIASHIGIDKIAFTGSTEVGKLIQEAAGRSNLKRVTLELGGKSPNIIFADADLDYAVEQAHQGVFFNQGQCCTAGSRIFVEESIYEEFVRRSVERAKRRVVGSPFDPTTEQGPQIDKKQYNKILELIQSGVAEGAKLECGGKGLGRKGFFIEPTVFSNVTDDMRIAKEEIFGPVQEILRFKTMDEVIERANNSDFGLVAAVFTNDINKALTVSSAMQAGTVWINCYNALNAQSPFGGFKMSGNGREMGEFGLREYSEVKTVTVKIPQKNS
The data set can be described thus: KD evaluation by probe fluorescence (Tecan SPARK). The class given is binding. The following applies: probe fixed at 10 μM, isoenzyme 100 μM to 1 μM. As for the experimental part: as §1, §2

Data set [4] concerns the target T2, ALDH1A3. The data set is described as follows: Fluorescence of probes in buffer and in complex with the isoenzymes (Tecan SPARK). Format: binding. To be noted: in complex with the three isoenzymes, in particular ALDH1A3. As for the experimental part:
All five compounds were dissolved in DMSO (100%) to obtain two different initial stocks, one at 10 mM and a second one at 1 mM. […] The assay can be executed at a maximum DMSO percentage of 15%. The maximum probe concentration tested was 500 uM—15% DMSO. All the compounds were tested using a Tecan—SPARK, to analyze their absorbance, excitation and emission wavelength. Based on the literature, the absorbance of the curcumin by itself is comprised between 420 and 425 nm. At first, we measured the absorbance, and from those values, we performed a 3D analysis to highlights the correct Ex and Em wavelengths. To avoid any possible background in the fluorescence signal we performed a screening of every possible buffer used in our assays.

Data set [5] deals with T1, ALDH1A1. The data set is described as follows: IC50 evaluation, NADH formation at 340 nm (Tecan SUNRISE). The class given is biochemical. As for the experimental part: as §1
(§3) IC50 evaluation: on a Tecan—SUNRISE, probe 13 was tested in a serial dilution series from 200 μM to 3, 125 μM, against all the three isoenzymes. The recipe of reaction buffer was: 20 mM Tris HCl pH=8, 150 mM KCl, 1 mM B-mercaptoethanol, 500 μM NAD^+, 15% DMSO fixed, 20 mM acetaldehyde and 2.7 μM each isoenzyme. The analysis was conducted measuring the NADH formation, that has a specific absorbance wavelength (340 nm). The test was performed in triplicate with all the three isoenzymes.

Data set [6] addresses T2, ALDH1A3. The data set is described as above. Format: biochemical. As for the experimental part: as §1, §3
Data set [7] has as its target T3, ALDH1A2. The description is as above. The class given is biochemical. To be noted: 20 mM acetaldehyde, 500 μM NAD+, 15% DMSO, 2.7 μM isoenzyme. As for the experimental part:
as §1, §3

Substrate in data set [8]: COc1cc(/C=C/C(=O)/C=C(O)/C=C/c2ccc(OCc3cn(CCOc4ccc(C=O)cc4)nn3)c(OC)c2)ccc1O
The data set can be described thus: KM evaluation, compound as possible substrate, NADH formation. To be noted: 5% DMSO, pH 7.5. Format: biochemical, human. As for the experimental part:
as §1
KM evaluation: on a Tecan—SUNRISE, due to the inconsistency of result of the KD evaluation with probe 13 and to its chemistry nature (benzaldehyde), we performed an analysis to evaluate this compound possible substrate. The compound was tested in a serial dilution from 300 to 3.125 μM, at 5% DMSO. The analysis was conducted measuring the NADH formation, that has a specific absorbance wavelength (340 nm). The recipe of the buffer reaction was the same as described before. The assay was performed only for ALDH1A1 and ALDH1A2. The test was performed in triplicate with all the three isoenzymes.

[9] abbreviates: ALDH1A3, probe fixed at 10 μM, isoenzyme 100 μM to 1 μM, read-out: KD.
Setting [10] is: ALDH1A1, 20 mM acetaldehyde, 500 μM NAD+, 15% DMSO, 2.7 μM isoenzyme, read-out: IC50.
[11] abbreviates: ALDH1A3, 20 mM acetaldehyde, 500 μM NAD+, 15% DMSO, 2.7 μM isoenzyme, read-out: IC50.

Where two headings read alike, the source gives them in different places.

In general, Kd refers to a measure of binding affinity in units of concentration. One may read the IC50 as the point on the concentration scale where inhibition reaches its midpoint. With `COc1cc(/C=C/C(O)=C/C(=O)/C=C/c2ccc(N(C)C)cc2)ccc1OCc1cn(CCOc2ccc(C=O)cc2)nn1` [Compound 15], the equilibrium dissociation constant (Kd) amounted to 23.9 µM in data set [1], 20.4 µM in data set [2] (setting [9]) and 8.7 µM in data set [3]. The “increase of fluorescence in complex with the isoenzymes” value in data set [4] is “no good result”. For the same molecule, the figures for the 50% inhibitory concentration (IC50) in data set [5] (setting [10]), in data set [6] (setting [11]) and in data set [7] were 28.5 µM, 5.1 µM and “N.I”, respectively.

For the molecule `CCOP(=O)(OCC)Oc1ccc(/C=C/C(=O)/C=C(O)/C=C/c2ccc(OCc3cn(CCOc4ccc(C=O)cc4)nn3)c(OC)c2)cc1OC` [Compound 16], the dissociation constant Kd in data set [2] was determined as 55.7 µM. Moreover, the “increase of fluorescence in complex with the isoenzymes” value in data set [4] is “no good result”. Further, the half-inhibitory concentration (IC50) is 150 µM in data set [5], 8.5 µM in data set [6] and “N.I” in data set [7].

For `CCOC(=O)Cn1cc(COc2ccc(C=CC(=O)C=C(O)C=Cc3ccc(OP(=O)(OCC)OCC)c(OC)c3)cc2OC)nn1` [Compound 17], the dissociation constant (Kd) in data set [1] came out at 18.1 µM; in data set [2] (setting [9]), 14.9 µM. Further, the values for the concentration for half-maximal inhibition (IC50) in data set [5] (setting [10]), in data set [6] (setting [11]) and in data set [7] were 70.1 µM, 158 µM and “N.I”, respectively.

B1: ALDH1A2 (Homo sapiens) (protein)
chain: MTSSKIEMPGEVKADPAALMASLHLLPSPTPNLEIKYTKIFINNEWQNSESGRVFPVYNPATGEQVCEVQEADKADIDKAVQAARLAFSLGSVWRRMDASERGRLLDKLADLVERDRAVLATMESLNGGKPFLQAFYVDLQGVIKTFRYYAGWADKIHGMTIPVDGDYFTFTRHEPIGVCGQIIPWNFPLLMFAWKIAPALCCGNTVVIKPAEQTPLSALYMGALIKEAGFPPGVINILPGYGPTAGAAIASHIGIDKIAFTGSTEVGKLIQEAAGRSNLKRVTLELGGKSPNIIFADADLDYAVEQAHQGVFFNQGQCCTAGSRIFVEESIYEEFVRRSVERAKRRVVGSPFDPTTEQGPQIDKKQYNKILELIQSGVAEGAKLECGGKGLGRKGFFIEPTVFSNVTDDMRIAKEEIFGPVQEILRFKTMDEVIERANNSDFGLVAAVFTNDINKALTVSSAMQAGTVWINCYNALNAQSPFGGFKMSGNGREMGEFGLREYSEVKTVTVKIPQKNS
notes: His-tag; made in house; host or cells: bacterial cells
The Km is the substrate concentration at which the rate is half of its maximum. In the case of B1, the Km in data set [8] (other: ALDH1A2, 300 to 3.125 μM) is 220.0 µM.

B2: ALDH1A1 (Homo sapiens) (protein)
chain: MSSSGTPDLPVLLTDLKIQYTKIFINNEWHDSVSGKKFPVFNPATEEELCQVEEGDKEDVDKAVKAARQAFQIGSPWRTMDASERGRLLYKLADLIERDRLLLATMESMNGGKLYSNAYLNDLAGCIKTLRYCAGWADKIQGRTIPIDGNFFTYTRHEPIGVCGQIIPWNFPLVMLIWKIGPALSCGNTVVVKPAEQTPLTALHVASLIKEAGFPPGVVNIVPGYGPTAGAAISSHMDIDKVAFTGSTEVGKLIKEAAGKSNLKRVTLELGGKSPCIVLADADLDNAVEFAHHGVFYHQGQCCIAASRIFVEESIYDEFVRRSVERAKKYILGNPLTPGVTQGPQIDKEQYDKILDLIESGKKEGAKLECGGGPWGNKGYFVQPTVFSNVTDEMRIAKEEIFGPVQQIMKFKSLDDVIKRANNTFYGLSAGVFTKDIDKAITISSALQAGTVWVNCYGVVSAQCPFGGFKMSGNGRELGEYGFHEYTEVKTVTVKISQKNS
notes: as for B1
Take B2: the Km in data set [8] (other: ALDH1A1, 300 to 3.125 μM) was found to be 255.2 µM.
